# Test results: patent publication US20220306617A1, “SUBSTITUTED 1,3-PHENYL HETEROARYL DERIVATIVES AND THEIR USE IN THE TREATMENT OF DISEASE” (NOVARTIS AG, priority 2019, published 2022)
# Counter-ions that a name gives are not always drawn.
# Target: T1, abc isoform of human TMEM16A channel expressed in CHO cells (Homo sapiens, UniProt Q5XXA6, DEL476-501)
# T1 construct: expressed in transfected cells; host or cells: CHO cells, doxycycline-inducible expression under Blasticidin/Zeocin selection
# T1 sequence (Q5XXA6 with tags, fused parts or gaps isoform Q5XXA6-5 DEL539-564): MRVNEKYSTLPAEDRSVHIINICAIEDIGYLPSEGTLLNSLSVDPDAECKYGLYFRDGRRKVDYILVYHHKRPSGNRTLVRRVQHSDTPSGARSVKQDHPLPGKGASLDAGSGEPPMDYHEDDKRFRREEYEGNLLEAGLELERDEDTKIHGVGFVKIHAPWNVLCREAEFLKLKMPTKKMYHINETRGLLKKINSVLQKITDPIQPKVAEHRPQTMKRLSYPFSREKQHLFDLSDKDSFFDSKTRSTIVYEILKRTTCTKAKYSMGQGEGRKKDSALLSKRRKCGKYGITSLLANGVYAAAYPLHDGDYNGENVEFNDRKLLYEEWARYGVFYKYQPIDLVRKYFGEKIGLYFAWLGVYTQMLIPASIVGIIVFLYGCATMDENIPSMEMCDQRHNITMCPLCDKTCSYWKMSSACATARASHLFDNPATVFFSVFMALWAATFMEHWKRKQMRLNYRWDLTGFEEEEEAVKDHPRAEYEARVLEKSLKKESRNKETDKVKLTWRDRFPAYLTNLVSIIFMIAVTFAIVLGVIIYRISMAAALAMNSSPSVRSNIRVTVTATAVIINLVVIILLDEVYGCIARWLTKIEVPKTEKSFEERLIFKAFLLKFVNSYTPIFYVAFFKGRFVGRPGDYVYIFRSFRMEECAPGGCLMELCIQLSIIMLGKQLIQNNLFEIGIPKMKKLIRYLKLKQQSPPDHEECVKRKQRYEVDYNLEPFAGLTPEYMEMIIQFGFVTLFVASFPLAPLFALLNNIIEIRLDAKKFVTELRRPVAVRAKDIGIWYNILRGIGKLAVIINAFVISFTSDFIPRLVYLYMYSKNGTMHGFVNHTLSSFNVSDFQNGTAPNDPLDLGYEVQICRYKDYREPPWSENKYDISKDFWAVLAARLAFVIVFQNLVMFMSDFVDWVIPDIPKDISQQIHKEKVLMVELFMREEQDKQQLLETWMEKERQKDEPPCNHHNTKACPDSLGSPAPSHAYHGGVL
# Experiment: Automated patch clamping (QPatch) assay to measure TMEM16A activity in whole-cell
# Assay type: cell-based
# Conditions: for EC50: CHO cells expressing human TMEM16A (abc), whole-cell automated patch clamp, Hill fit, read-out: TMEM16A QPATCH assay EC50 V3 EC50; for Emax: CHO, maximum current at highest dose relative to reference potentiator at maximal concentration (upper limit) and vehicle (lower limit), read-out: TMEM16A QPATCH assay EC50 V3 Assay Window (% TMEM16A max activation)
# Method in brief: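 CHO cells with doxycycline-induced (1 μg/mL, 18-24 h) human TMEM16A abc isoform; QPatch whole-cell recording, hold −70 mV, step +70 mV 1500 ms, then −90 to +70 mV ramp. Compounds in 0.3% DMSO; EC50 by Hill fit; % max activation relative to vehicle baseline and reference potentiator maximum.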
Compound,EC50 [nM],Emax [%]
"CCOC(=O)[C@@H](NC(=O)c1cc(-c2cccc(-c3ncc(C(=O)NC(CC)CC)o3)c2)[nH]n1)C(C)C [Example 3.52, (S)-Ethyl 3-Methyl-2-(5-(3-(5-(Pentan-3-Ylcarbamoyl)Oxazol-2-Yl)Phenyl)-1 H-Pyrazole-3-Carboxamido)Butanoate]",30,95
"CCC(CC)NC(=O)c1cc(-c2cccc(-c3ncc(C(=O)NCC4(C)CCCCC4)o3)c2)[nH]n1 [Example 1.34, N-((1-Methylcyclohexyl)Methyl)-2-(3-(3-(Pentan-3-Ylcarbamoyl)-1 H-Pyrazol-5-Yl)Phenyl)Oxazole-5-Carboxamide]",570,72
"CCC(CC)NC(=O)c1cnc(-c2cccc(-c3cc(C(=O)N[C@@H](C)CC)n[nH]3)c2)o1 [Example 3.24, (S)-2-(3-(3-(Sec-Butylcarbamoyl)-1H-Pyrazol-5-Yl)Phenyl)-N-(Pentan-3-Yl)Oxazole-5-Carboxamide]",40,76
"CCOC(=O)[C@@H](NC(=O)c1cnc(-c2cccc(-c3cc(C(=O)NC(C4CC4)C4CC4)n(CCCO)n3)c2)o1)C(C)C [Example 4.5, (S)-Ethyl 2-(2-(3-(5-((Dicyclopropylmethyl)Carbamoyl)-1-(3-Hydroxypropyl)-1 H-Pyrazol-3-Yl)Phenyl)Oxazole-5-Carboxamido)-3-Methylbutanoate]",120,154
"CCC(CC)NC(=O)c1cnc(-c2cccc(-c3cc(C(=O)N[C@@H](Cc4ccccc4)C(=O)OC)n[nH]3)c2)o1 [Example 3.50, (S)-Methyl 2-(5-(3-(5-(Pentan-3-Ylcarbamoyl)Oxazol-2-Yl)Phenyl)-1H-Pyrazole-3-Carboxamido)-3-Phenylpropanoate]",350,70
"CCC(CC)NC(=O)c1cnc(-c2cccc(-c3cc(C(=O)N[C@@H](C)C4CCCCC4)n[nH]3)c2)o1 [Example 3.49, (S)-2-(3-(3-((1-Cyclohexylethyl)Carbamoyl)-1H-Pyrazol-5-Yl)Phenyl)-N-(Pentan-3-Yl)Oxazole-5-Carboxamide]",170,72
"COC(=O)[C@@H](NC(=O)c1cnc(-c2cccc(-c3cc(C(=O)N[C@@H](C)C4CC4)n(CC(O)C(F)(F)F)n3)c2)o1)C(C)C (single isomer, unassigned) [8.1 (i)]",10,135
"CCC(CC)NC(=O)c1cnc(-c2cccc(-c3nc(C(=O)NC(CC)CC)n(CCN4Cc5ccccc5C4)n3)c2)o1 [Example 15.7, 2-(3-(1-(2-(Isoindolin-2-Yl)Ethyl)-5-(Pentan-3-Ylcarbamoyl)-1H-1,2,4-Triazol-3-Yl)Phenyl)-N-(Pentan-3-Yl)Oxazole-5-Carboxamide]",320,103
"CCOC(=O)[C@@H](NC(=O)c1cnc(-c2cccc(-c3cc(C(=O)N[C@@H](C)C4CC4)n[nH]3)c2)o1)C(C)C [Example 1.0, (S)-Ethyl 2-(2-(3-(3-(((S)-1-Cyclopropylethyl)Carbamoyl)-1H-Pyrazol-5-Yl)Phenyl)Oxazole-5-Carboxamido)-3-Methylbutanoate]",40,79
"CCC(CC)NC(=O)c1cnc(-c2cccc(-c3cc(C(=O)NC(C)(C)C4CC4)n[nH]3)c2)o1 [Example 3.7, 2-(3-(3-((2-Cyclopropylpropan-2-Yl)Carbamoyl)-1H-Pyrazol-5-Yl)Phenyl)-N-(Pentan-3-Yl)Oxazole-5-Carboxamide]",20,118
"COC(=O)[C@@H](NC(=O)c1cnc(-c2cccc(-c3cc(C(=O)NC(C4CC4)C4CC4)[nH]n3)c2)o1)C(C)C [Example 1.29, (S)-Methyl 2-(2-(3-(5-((Dicyclopropylmethyl)Carbamoyl)-1 H-Pyrazol-3-yl)Phenyl)Oxazole-5-Carboxamido)-3-Methylbutanoate]",10,113
"CCC(CC)NC(=O)c1cnc(-c2cccc(-c3cc(C(=O)N[C@@H](C)c4ccccc4)n[nH]3)c2)o1 [Example 3.38, (S)-N-(Pentan-3-Yl)-2-(3-(3-((1-Phenylethyl)Carbamoyl)-1H-Pyrazol-5-yl)Phenyl)Oxazole-5-Carboxamide]",150,100
"C[C@H](NC(=O)c1cnc(-c2cccc(-c3nnc(C(=O)N[C@H](C)C4CC4)[nH]3)c2)o1)C1CC1 [Example 13.0, N-((S)-1-Cyclopropylethyl)-2-(3-(5-(((R)-1-Cyclopropylethyl)Carbamoyl)-4H-1,2,4-Triazol-3-Yl)Phenyl)Oxazole-5-Carboxamide]",310,74
"CCC(CC)NC(=O)c1cnc(-c2cccc(-c3cc(C(=O)N[C@@H](C)C4CC4)n(CC(C)(C)O)n3)c2)o1 [Example 8.0, (S)-2-(3-(5-((1-Cyclopropylethyl)Carbamoyl)-1-(2-Hydroxy-2-Methylpropyl)-1H-Pyrazol-3-Yl)Phenyl)-N-(Pentan-3-Yl)Oxazole-5-Carboxamide]",200,106
"CCC(CC)NC(=O)c1cnc(-c2cccc(-c3cc(C(=O)N4CCC(C(=O)OC)C4)n[nH]3)c2)o1 (stereo not drawn) [Example 3.30, Methyl 1-(5-(3-(5-(Pentan-3-Ylcarbamoyl)Oxazol-2-Yl)Phenyl)-1H-Pyrazole-3-Carbonyl)Pyrrolidine-3-Carboxylate]",750,90
"CCCC(CCC)NC(=O)c1cc(-c2cccc(-c3ncc(C(=O)NC(CC)CC)o3)c2)[nH]n1 [Example 3.2, 2-(3-(3-(Heptan-4-Ylcarbamoyl)-1 H-Pyrazol-5-Yl)Phenyl)-N-(Pentan-3-yl)Oxazole-5-Carboxamide]",30,90
"COC(=O)[C@H](CC1CCCCC1)NC(=O)c1cnc(-c2cccc(-c3cc(C(=O)NC(C4CC4)C4CC4)n[nH]3)c2)o1 [Example 1.4, (S)-Methyl 3-Cyclohexyl-2-(2-(3-(3-((Dicyclopropylmethyl)Carbamoyl)-1H-Pyrazol-5-Yl)Phenyl)Oxazole-5-Carboxamido)Propanoate]",910,103
"CCC(CC)NC(=O)c1cc(-c2cccc(-c3ncc(C(=O)NCc4ccc(F)cc4)o3)c2)[nH]n1 [Example 1.17, N-(4-Fluorobenzyl)-2-(3-(3-(Pentan-3-Ylcarbamoyl)-1H-Pyrazol-5-yl)Phenyl)Oxazole-5-Carboxamide]",580,94
"CCC(CC)NC(=O)c1cnc(-c2cccc(-c3cc(C(=O)Nc4cccc(OC(F)(F)F)c4)n[nH]3)c2)o1 [Example 3.14, N-(Pentan-3-Yl)-2-(3-(3-((3-(Trifluoromethoxy)Phenyl)Carbamoyl)-1 H-Pyrazol-5-Yl)Phenyl)Oxazole-5-Carboxamide]",490,43
"CCC(CC)NC(=O)c1cnc(-c2cccc(-c3cc(C(=O)NCC4CCC4)n[nH]3)c2)o1 [Example 3.5, 2-(3-(3-((Cyclobutylmethyl)Carbamoyl)-1H-Pyrazol-5-Yl)Phenyl)-N-(Pentan-3-Yl)Oxazole-5-Carboxamide]",40,124
"CCC(CC)NC(=O)c1cnc(-c2cccc(-c3cc(C(=O)NC4(C5CC5)CC4)n[nH]3)c2)o1 [Example 3.6, 2-(3-(3-([1,1′-Bi(Cyclopropan)]-1-Ylcarbamoyl)-1H-Pyrazol-5-Yl)Phenyl)-N-(Pentan-3-Yl)Oxazole-5-Carboxamide]",170,122
"CCOC(=O)[C@@H](NC(=O)c1cnc(-c2cccc(-c3cc(C(=O)NC(C)C(F)(F)F)[nH]n3)c2)o1)C(C)C (stereo partly drawn) [Example 3.55, (2S)-Ethyl 3-Methyl-2-(2-(3-(5-((1,1,1-Trifluoropropan-2-Yl)Carbamoyl)-1H-Pyrazol-3-Yl)Phenyl)Oxazole-5-Carboxamido)Butanoate]",20,69
"CCOC(=O)[C@H](CC(C)C)NC(=O)c1cc(-c2cccc(-c3ncc(C(=O)NC(CC)CC)o3)c2)[nH]n1 [Example 3.60, (S)-Ethyl 4-Methyl-2-(5-(3-(5-(Pentan-3-Ylcarbamoyl)Oxazol-2-Yl)Phenyl)-1H-Pyrazole-3-Carboxamido)Pentanoate Trifluoroacetate]",160,150
"CCC(CC)NC(=O)c1cnc(-c2cccc(-c3cc(C(=O)N4CCCCC4)n[nH]3)c2)o1 [Example 3.33, N-(Pentan-3-Yl)-2-(3-(3-(Piperidine-1-Carbonyl)-1H-Pyrazol-5-Yl)Phenyl)Oxazole-5-Carboxamide]",840,61
